Reference: patent publication US11400058B2, “Intravenous formulations of coenzyme Q10 (CoQ10) and methods of use thereof” (Berg LLC, priority 2010, dated 2022)
Marks after values point to notes of the source that are not given here.

Experiment: 4-week repeat-dose toxicology study in rats with 2-week recovery (Study 20000328)
[1] = 250 mg/kg F, end of dosing, animals of 10
[2] = 250 mg/kg F, end of recovery, animals of 5
[3] = 250 mg/kg M, end of dosing, animals of 10
[4] = 250 mg/kg M, end of recovery, animals of 5

COC1=C(OC)C(=O)C(C/C=C(\C)CC/C=C(\C)CC/C=C(\C)CC/C=C(\C)CC/C=C(\C)CC/C=C(\C)CC/C=C(\C)CC/C=C(\C)CC/C=C(\C)CCC=C(C)C)=C(C)C1=O [CoQ10, Coenzyme Q10]
Spleen Histiocytic Infiltration [1]: 10 | Spleen Histiocytic Infiltration, Marked [1]: 2 | Spleen Histiocytic Infiltration, Mild [1]: 1 | Spleen Histiocytic Infiltration, Moderate [1]: 7 | ALT (250 mg/kg F, end of recovery): 63* IU/L | APPT (250 mg/kg F, end of recovery): 14.7 s | AST (250 mg/kg F, end of recovery): 153* IU/L | Body Weight, percent difference from controls (250 mg/kg F, end of recovery): −12.6% | Food Consumption, percent difference from controls (250 mg/kg F, end of recovery): +0.7% | GGT (250 mg/kg F, end of recovery): 0.58* IU/L | Liver weight (absolute), percent difference from controls (250 mg/kg F, end of recovery): +19.6% | Spleen weight (absolute), percent difference from controls (250 mg/kg F, end of recovery): +82.7* % | Adrenal Gland Vacuolation [2]: 5 | Adrenal Gland Vacuolation, Marked [2]: 1 | Adrenal Gland Vacuolation, Mild [2]: 0 | Adrenal Gland Vacuolation, Minimal [2]: 0 | Adrenal Gland Vacuolation, Moderate [2]: 4 | Gross Pathology: Enlarged Spleen [2]: 2 | Gross Pathology: Pale Iliac Lymph Node [2]: 4 | Gross Pathology: Pale Liver [2]: 5 | Gross Pathology: Pale Ovaries [2]: 4 | Gross Pathology: Pale Pancreatic Lymph Node [2]: 3 | Liver Focal Necrosis [2]: 1 | Liver Focal Necrosis, Mild [2]: 1 | Liver Focal Necrosis, Minimal [2]: 0 | Liver Histiocytic Infiltration [2]: 5 | Liver Histiocytic Infiltration, Mild [2]: 1 | Liver Histiocytic Infiltration, Minimal [2]: 0 | Liver Histiocytic Infiltration, Moderate [2]: 4 | Liver Multifocal Necrosis [2]: 1 | Liver Multifocal Necrosis, Mild [2]: 0 | Liver Multifocal Necrosis, Moderate [2]: 1 | Liver Vacuolation [2]: 5 | Liver Vacuolation, Mild [2]: 0 | Liver Vacuolation, Minimal [2]: 0 | Liver Vacuolation, Moderate [2]: 5 | Lymph Node, Man. Histiocytic Infiltration [2]: 5 | Lymph Node, Man. Histiocytic Infiltration, Mild [2]: 3 | Lymph Node, Man. Histiocytic Infiltration, Minimal [2]: 1 | Lymph Node, Man. Histiocytic Infiltration, Moderate [2]: 1 | Lymph Node, Mes. Histiocytic Infiltration [2]: 5 | Lymph Node, Mes. Histiocytic Infiltration, Mild [2]: 5 | Lymph Node, Mes. Histiocytic Infiltration, Minimal [2]: 0 | Ovary Histiocytic Infiltration [2]: 5 | Ovary Histiocytic Infiltration, Mild [2]: 4 | Ovary Histiocytic Infiltration, Minimal [2]: 0 | Ovary Histiocytic Infiltration, Moderate [2]: 1 | Spleen Histiocytic Infiltration [2]: 5 | Spleen Histiocytic Infiltration, Marked [2]: 0 | Spleen Histiocytic Infiltration, Mild [2]: 4 | Spleen Histiocytic Infiltration, Minimal [2]: 1 | Spleen Histiocytic Infiltration, Moderate [2]: 0 | Died or Sacrificed Moribund (250 mg/kg M, animals of 15): 0 | ALT (250 mg/kg M, end of dosing): 35* IU/L | APPT (250 mg/kg M, end of dosing): 14.7* seconds | AST (250 mg/kg M, end of dosing): 113* IU/L | Body Weight, percent difference from controls (250 mg/kg M, end of dosing): −17.6* % | Eosinophils (250 mg/kg M, end of dosing): 0.14* 10^3/cmm | Erythrocytes (250 mg/kg M, end of dosing): 6.23 10^6/cmm | Food Consumption, percent difference from controls (250 mg/kg M, end of dosing): −16.4* % | GGT (250 mg/kg M, end of dosing): 0.16 IU/L | Hematocrit (250 mg/kg M, end of dosing): 40.4* % | Hemoglobin (250 mg/kg M, end of dosing): 12.9* g/dL | Leukocytes (250 mg/kg M, end of dosing): 15.55* 10^3/cmm | Liver weight (absolute), percent difference from controls (250 mg/kg M, end of dosing): +11.0% | Lymphocytes (250 mg/kg M, end of dosing): 12.58 10^3/cmm | Neutrophils (250 mg/kg M, end of dosing): 2.13* 10^3/cmm | Spleen weight (absolute), percent difference from controls (250 mg/kg M, end of dosing): +65.9% | Adrenal Gland Vacuolation [3]: 10 | Adrenal Gland Vacuolation, Mild [3]: 5 | Adrenal Gland Vacuolation, Minimal [3]: 0 | Adrenal Gland Vacuolation, Moderate [3]: 5 | Bone Marrow, Sternum Hyperplasia [3]: 4 | Bone Marrow, Sternum Hyperplasia, Mild [3]: 4 | Bone Marrow, Sternum Hyperplasia, Minimal [3]: 0 | Gross Pathology: Enlarged Pancreatic Lymph Nodes [3]: 5 | Gross Pathology: Pale Adrenal [3]: 4 | Gross Pathology: Pale Liver [3]: 10 | Gross Pathology: Pale Lymph Nodes [3]: 8 | Gross Pathology: Pale Pituitary [3]: 3 | Gross Pathology: Pale SQ Skin [3]: 0 | Injection Site Mononuclear Cell Infiltration [3]: 10 | Injection Site Mononuclear Cell Infiltration, Marked [3]: 1 | Injection Site Mononuclear Cell Infiltration, Mild [3]: 0 | Injection Site Mononuclear Cell Infiltration, Minimal [3]: 0 | Injection Site Mononuclear Cell Infiltration, Moderate [3]: 9 | Liver Focal Necrosis [3]: 0 | Liver Focal Necrosis, Minimal [3]: 0 | Liver Histiocytic Infiltration [3]: 10 | Liver Histiocytic Infiltration, Mild [3]: 7 | Liver Histiocytic Infiltration, Minimal [3]: 1 | Liver Histiocytic Infiltration, Moderate [3]: 2 | Liver Vacuolation [3]: 10 | Liver Vacuolation, Mild [3]: 10 | Liver Vacuolation, Minimal [3]: 0 | Lymph Node, Man. Histiocytic Infiltration [3]: 9 | Lymph Node, Man. Histiocytic Infiltration, Mild [3]: 3 | Lymph Node, Man. Histiocytic Infiltration, Minimal [3]: 0 | Lymph Node, Man. Histiocytic Infiltration, Moderate [3]: 6 | Lymph Node, Mes. Histiocytic Infiltration [3]: 9 | Lymph Node, Mes. Histiocytic Infiltration, Mild [3]: 7 | Lymph Node, Mes. Histiocytic Infiltration, Minimal [3]: 1 | Lymph Node, Mes. Histiocytic Infiltration, Moderate [3]: 1 | Skin, Dermis Histiocytic Infiltration [3]: 0 | Skin, Dermis Histiocytic Infiltration, Marked [3]: 0 | Skin, Dermis Histiocytic Infiltration, Mild [3]: 0 | Skin, Dermis Histiocytic Infiltration, Moderate [3]: 0 | Skin, SQ Histiocytic Infiltration [3]: 0 | Skin, SQ Histiocytic Infiltration, Mild [3]: 0 | Spleen Histiocytic Infiltration [3]: 10 | Spleen Histiocytic Infiltration, Marked [3]: 1 | Spleen Histiocytic Infiltration, Mild [3]: 0 | Spleen Histiocytic Infiltration, Moderate [3]: 9 | ALT (250 mg/kg M, end of recovery): 96* IU/L | APPT (250 mg/kg M, end of recovery): 15.3* seconds | AST (250 mg/kg M, end of recovery): 213* IU/L | Body Weight, percent difference from controls (250 mg/kg M, end of recovery): −15.0* % | Food Consumption, percent difference from controls (250 mg/kg M, end of recovery): −14.1% | GGT (250 mg/kg M, end of recovery): 0.42 IU/L | Liver weight (absolute), percent difference from controls (250 mg/kg M, end of recovery): +7.6% | Spleen weight (absolute), percent difference from controls (250 mg/kg M, end of recovery): +38.7* % | Adrenal Gland Vacuolation [4]: 4 | Adrenal Gland Vacuolation, Marked [4]: 0 | Adrenal Gland Vacuolation, Mild [4]: 2 | Adrenal Gland Vacuolation, Minimal [4]: 0 | Adrenal Gland Vacuolation, Moderate [4]: 2 | Gross Pathology: Enlarged Spleen [4]: 4 | Gross Pathology: Pale Iliac Lymph Node [4]: 3 | Gross Pathology: Pale Liver [4]: 5 | Gross Pathology: Pale Pancreatic Lymph Node [4]: 3 | Liver Focal Necrosis [4]: 2 | Liver Focal Necrosis, Mild [4]: 1 | Liver Focal Necrosis, Minimal [4]: 0 | Liver Histiocytic Infiltration [4]: 5 | Liver Histiocytic Infiltration, Mild [4]: 4 | Liver Histiocytic Infiltration, Minimal [4]: 1 | Liver Histiocytic Infiltration, Moderate [4]: 0 | Liver Multifocal Necrosis [4]: 1 | Liver Multifocal Necrosis, Mild [4]: 1 | Liver Multifocal Necrosis, Moderate [4]: 0 | Liver Vacuolation [4]: 5 | Liver Vacuolation, Mild [4]: 0 | Liver Vacuolation, Minimal [4]: 0 | Liver Vacuolation, Moderate [4]: 5 | Lymph Node, Man. Histiocytic Infiltration [4]: 5 | Lymph Node, Man. Histiocytic Infiltration, Mild [4]: 1 | Lymph Node, Man. Histiocytic Infiltration, Minimal [4]: 2 | Lymph Node, Man. Histiocytic Infiltration, Moderate [4]: 2 | Lymph Node, Mes. Histiocytic Infiltration [4]: 5 | Lymph Node, Mes. Histiocytic Infiltration, Mild [4]: 5 | Lymph Node, Mes. Histiocytic Infiltration, Minimal [4]: 0 | Spleen Histiocytic Infiltration [4]: 5 | Spleen Histiocytic Infiltration, Marked [4]: 1 | Spleen Histiocytic Infiltration, Mild [4]: 3 | Spleen Histiocytic Infiltration, Minimal [4]: 0 | Spleen Histiocytic Infiltration, Moderate [4]: 1
